# Tested on: H2AX
# Assay: Immunoblotting of DNA damage response (H2AX phosphorylation)
# Type: cell-based, human
# Details: BJ fibroblasts expressing control shRNA, 10 μM for 4 hrs
# Description: The antibodies used in this study included: rabbit anti-H2AX (Novus); rabbit anti—H2AX (Upstate Biotechnology); rabbit anti-H2B (Upstate Biotechnology); mouse anti-H3 (Upstate Biotechnology); rabbit anti-H4 (Upstate Biotechnology); rabbit anti-macro H2A.1 (Upstate Biotechnology); rabbit anti-dimethyl H3 (K9) (Upstate Biotechnology); rabbit anti-acetyl H3 (Lys9) (Upstate Biotechnology); rabbit anti-acetyl H4 (K12) (Upstate Biotechnology); goat anti-phospho-specific BRCA1 (Ser1497) (Santa Cruz); rabbit anti-ATM-pS1981 (Rockland); rabbit anti-ATM-S1981 (Rockland); and mouse anti-p53 (Ab6) (Oncogene). Cells were lysed in RIPA buffer (12.5 mM NaPO4, pH7.2, 2 mM EDTA, 50 mM NaF, 1.25% NP-40, 1.25% SDS, 0.1 mM DTT) except when specific conditions are noted. For extraction under low salt conditions, cells were lysed in a buffer comprised of 20 mM Tris-HCl, pH 7.4, 150 mM NaCl, 0.1% NP40, 0.1 mM DTT. For high salt condition extraction, cells were lysed in a buffer composed of 20 mM Tris-HCl, pH 7.4, 500 mM NaCl, 0.5% NP40, 0.1 mM DTT. For acid precipitation of histones, cells were homogenized in 0.2 N H2SO4 and centrifuged. Histones were precipitated by adding ¼ volume of 100% (w/v) TCA. The pellets were suspended in 100% ethanol and centrifuged again at 13,000×g. 10 μg of protein was subjected to immunoblotting.
smiles,measurement,value
CCc1c2c(nc3ccc(OC(=O)N4CCC(N5CCCCC5)CC4)cc13)-c1cc3c(c(=O)n1C2)COC(=O)[C@]3(O)CC [irinotecan],Phosphorylation of H2AX after treatment with chemotherapeutic agent,induced phosphorylation of H2AX
